Measured values reported in US11319306B2, “Compositions and methods for treating neurodegenerative diseases” (Azevan Pharmaceuticals, Inc., priority 2014, dated 2022).
pIC50, pKi: −log10 of the molar value. Where two headings read alike, the source gives them in different places.

Tests used:
[1] = target: T1, human V1a receptor (Homo sapiens, UniProt P37288); assay: Inhibition of phosphatidylinositol turnover (V1a); format: cell-based; conditions: inhibition of vasopressin-mediated phosphatidylinositol turnover
T1 construct: host or cells: CHO cells (hV1a cell line)
T1 sequence (P37288 whole entry): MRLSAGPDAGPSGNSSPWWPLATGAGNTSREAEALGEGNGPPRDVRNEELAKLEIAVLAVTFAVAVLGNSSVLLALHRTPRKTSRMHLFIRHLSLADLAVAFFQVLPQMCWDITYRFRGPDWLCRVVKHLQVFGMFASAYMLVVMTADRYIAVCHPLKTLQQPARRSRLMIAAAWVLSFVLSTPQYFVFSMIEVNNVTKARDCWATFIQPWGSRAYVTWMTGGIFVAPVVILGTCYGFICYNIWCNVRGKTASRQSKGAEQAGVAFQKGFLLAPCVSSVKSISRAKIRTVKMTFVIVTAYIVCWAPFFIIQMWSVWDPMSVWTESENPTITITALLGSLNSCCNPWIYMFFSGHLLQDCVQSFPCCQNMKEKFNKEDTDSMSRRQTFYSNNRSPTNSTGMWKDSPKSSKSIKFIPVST
Source text: The physiological effects of vasopressin are mediated through specific G-protein coupled receptors. The vasopressin V1a receptor is coupled to the Gq/G11 family of G proteins and mediates phosphatidylinositol turnover. The agonist or antagonist character of the compounds of the invention may be determined by their ability to inhibit vasopressin-mediated turnover of phosphatidylinositol by the procedure described in the following paragraphs.
Cell culture and labeling of cells.
All assays were in triplicate except for basal and 10 nM AVP (both n=6). AVP ((arginine vasopressin), Peninsula Labs, Belmont, Calif., USA (#8103)) was dissolved in 0.1N acetic acid. Test agents were dissolved in DMSO and diluted in DMSO to 200 times the final test concentration. […] The order of incubations was randomized. Incubations were initiated by removing the prelabeling medium, washing the monolayer once with 1 mL of 0.9% NaCl, and transferring the contents of the assay tubes to corresponding wells. The plates were incubated for 1 hour at 37° C. Incubations were terminated by removing the incubation medium and adding 500 μL of ice cold 5% (w/v) trichloroacetic acid and allowing the wells to stand for 15 min.
BioRad Poly-Prep Econo-Columns were packed with 0.3 mL of AG 1 X-8 100-200 formate form resin. Resin was mixed 1:1 with water and 0.6 mL added to each column. Columns were then washed with 10 mL water. Scintillation vials (20 mL) were placed under each column. For each well, the contents were transferred to a minicolumn, after which the well was washed with 0.5 mL distilled water, which was also added to the minicolumn. The columns were then washed twice with 5 mL of 5 mM myo-inositol to elute free inositol. Aliquots (1 mL) were transferred to 20 mL scintillation vials and 10 mL of Beckman Ready Protein Plus added. After the myo-inositol wash was complete, empty scintillation vials were placed under the columns, and [^3H]inositol phosphates were eluted with three additions of 1 mL 0.5 M ammonium formate containing 0.1 N formic acid. Elution conditions were optimized to recover inositol mono-, bis-, and trisphosphates, without eluting the more metabolically inert tetrakis-, pentakis-, and hexakis-phosphates. To each sample was added 10 mL of a high salt capacity scintillation fluid such as Tru-Count High Salt Capacity or Packard Hionic-Fluor. Inositol lipids were measured by adding 1 mL of 2% sodium dodecyl sulfate (SDS) to each well, allowing the wells to stand for at least 30 min., and transferring the solution to 20 mL scintillation vials, to which 10 mL Beckman Ready Protein Plus scintillation fluid was then added. Samples were counted in a Beckman LS 3801 liquid scintillation counter for 10 min. Total inositol incorporation for each well was calculated as the sum of free inositol, inositol phosphates, and inositol lipids.
Concentration-response curves for AVP and concentration-inhibition curves for test agents versus 10 nM AVP were analyzed by nonlinear least-squares curve-fitting to a 4-parameter logistic function. Parameters for basal and maximal inositol phosphates, EC50 or IC50, and Hill coefficient were varied to achieve the best fit. The curve-fitting was weighted under the assumption that the standard deviation was proportional to dpm of radioactivity.

[2] = target: T1, human V1a receptor; assay: Human vasopressin V1a receptor binding assay (3H-AVP competition, hV1a CHO cells); conditions: for pIC50: read-out: V1a Binding Affinity IC50
How it was run: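 Whole CHO cells expressing hV1a were incubated with 1 nM 3H-AVP (as printed "InM") and 10-fold dilutions of compound in HEPES/BSA/DMEM buffer, pH 7.0, for 45 min at 37 °C. Non-specific binding was defined with 100 nM cold AVP. Bound radioactivity was SDS-solubilised and counted by scintillation; IC50 from curve fitting.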

[3] = system: C57Bl/6J males; assay: Social interaction test after chronic social subjugation; format: in vivo, mice
Source text: Anti-depressant Effect in the Social Interaction Test. […] A rapid subjugation paradigm in mice lead to diminished social interaction behavior, where the dependent measures are distance traveled and time in the Interaction Zone. A 28-day treatment regimen with chlordiazepoxide (CDP), a standard anxiolytic, had no effect on deficits produced by chronic subordination. Additional details are described in Berton et al. Essential role of BDNF in the mesolimbic dopamine pathway in social defeat stress. Science 311(5762):864-8 (Feb. 10, 2006).
Briefly, C57Bl/6J males are defeated daily for 10 days by resident, highly aggressive CF-1 males. After 5 minutes of direct exposure, a perforated plastic partition is inserted into the cage that allowed olfactory and visual contact without physical defeat for the remaining 23 hr 55 min each day. The C57 males are exposed to a different resident male in a different cage each day to increase the stress of the procedure (it is observed that all CF-1 males attacked the intruder each day). At the end of the 10 day defeat procedure, the C57 males are tested in an open field apparatus during the dark phase. A dominant male is caged in an area of the open field apparatus termed the “social interaction zone.” Time and distance traveled in the zone are recorded. The C57 males are then divided randomly among the following treatments: AVN246-HCl (2 mg/kg), saline vehicle (0.45%), or chlordiazepoxide (10 mg/kg). Treatments are given daily (i.p.) for 28 days and the animals are retested. Behavioral changes are determined by calculating difference scores (Post-Pretest) and these scores are analyzed.

[4] = system: Adult male Long Evans rats; assay: Light/dark shuttle box; format: in vivo, rat
Method: Anxiolytic Effect in the Light/Dark Shuttle Box. The light/dark shuttle box is a standard and well characterized assay for anxiolytic effects of a test compound. Rats naturally avoid the light side of the box because it is stressful. Increased time on the light side by the treatment group compared to control reflects an anxiolytic effect (Bourin and Hascoet, 2003). Adult male Long Evans rats are administered AVN251 (0.1-2 mg/kg) by oral gavage 90 min prior to testing in a light/dark shuttle box.

[5] = system: awake rats; assay: Resident-intruder model of stress and aggression in rats, awake fMRI neuroimaging; format: in vivo, rat
Source text: Resident-intruder model of stress and aggression in rats. Neuroimaging is used to assess the blockade of stress/arousal with test compound compared to control. The effect of AVN251-HCl on functional circuitry was examined using the imaging method for awake rats. Additional details of the assay are described in Ferris et al. Imaging the neural circuitry and chemical control of aggressive motivation.
Male rats in the company of a female cage mate piloerect in the presence of a male intruder. Piloerection is a sign of stress and aggressive intent and is associated with activation of stress/arousal circuits in the brain. Stress circuit activation in response to an intruder male is assessed by obtaining brain scans viewed from a caudal/dorsal perspective as translucent shells. The localization of activated voxels is mapped as 3D volumes of activation, which are composed of 10 subjects each. Once fully registered and segmented, the statistical responses for each subject are averaged on a voxel-by-voxel basis. Those averaged voxels exceeding a 2.0% threshold are shown in their appropriate spatial location. Functional images are acquired on awake rats at 4.7 T.
Resident male rats from six male/female pairs are imaged while fully awake, and presented with their mate, or their mate+an intruder, a highly stressful stimulus. […] The total volume of brain activation for resident males confronted with their mate alone, mate plus intruder, and mate plus intruder in the presence of AVN251-HCl are viewed as 3D models.
Awake rats are imaged when presented with their mate, or their mate+an intruder. […] In each scan, the dark shaded areas represent activation of vasopressin receptor signaling.

[6] = 3H-AVP competition, CHO cells expressing human V1a
[7] = 3H-AVP competition, CHO cells expressing human V1a, read-out: V1a Ki
[8] = difference score (Post-Pretest), daily i.p. for 28 days

Row | Compound | agonist or antagonist character [1] | pIC50 [2, 6] | pKi [2, 7] | other results
1 | O=C(NCc1cccc(C(F)(F)F)c1)[C@H](CCC(=O)N1CCN(CCc2ccccc2)CC1)N1C(=O)[C@@H](N2C(=O)OC[C@@H]2c2ccccc2)[C@H]1C=Cc1ccccc1 (single isomer, unassigned) [Example 35] | vasopressin V1a antagonists | – | – | –
2 | O=C(NCc1cccc(C(F)(F)F)c1)C(CCC(=O)N1CCC(N2CCCCC2)CC1)N1C(=O)C(N2C(=O)OCC2c2ccccc2)C1C=Cc1ccccc1 (single isomer, unassigned) [Example 88] | vasopressin V1a antagonists | 8.62 | 8.84 | –
3 | O=C(NCc1cccc(C(F)(F)F)c1)C(CCC(=O)N1CCN(C2CCCCC2)CC1)N1C(=O)C(N2C(=O)OCC2c2ccccc2)C1C=Cc1ccccc1 (single isomer, unassigned) [Example 110] | vasopressin V1a antagonists | – | – | –
4 | CNC1=Nc2ccc(Cl)cc2C(c2ccccc2)=[N+]([O-])C1 [CDP, chlordiazepoxide] | – | – | – | effect on social interaction deficits after chronic subordination ([3]; 28-day treatment): no effect; Distance (traveled in the interaction zone) [3, 8]: 1.0 ± 5; Time (in the interaction zone) [3, 8]: 0.0 ± 5
5 | O=C(NCc1cccc(C(F)(F)F)c1)C(CC(=O)N1CCC(N2CCCCC2)CC1)N1C(=O)C(N2C(=O)OCC2c2ccccc2)C1C=Cc1ccccc1 (stereo not shown) [Example 44] | vasopressin V1a antagonists | 8.51 | 8.72 | –
6 | O=C(NCc1cccc(C(F)(F)F)c1)C(CC(=O)N1CCC(N2CCCCC2)CC1)N1C(=O)C(N2C(=O)OCC2c2ccccc2)C1C=Cc1ccccc1 (stereo not shown) [Example 133] | vasopressin V1a antagonists | 8.61 | 8.83 | –
7 | CN(Cc1cccc(C(F)(F)F)c1)C(=O)[C@@H](CC(=O)N1CCC(N2CCCCC2)CC1)N1C(=O)[C@@H](N2C(=O)OC[C@@H]2c2ccccc2)[C@H]1/C=C/c1ccccc1 [Example 225, 2(R)-[[4-(Piperidinyl)piperidinyl]carbonylmethyl]-2-[3(S)-(4(S)-phenyloxazolidin-2-on-3-yl)-4(R)-(2-styryl)azetidin-2-on-1-yl]acetic acid N-methyl-N-(3-trifluoromethylbenzyl)amide] | – | – | 9.18 | pKi ([2]; receptor selectivity table, read-out: inhibition data Ki, V1a): 9.18; anxiety compared to vehicle ([4]; 0.1-2 mg/kg oral gavage 90 min prior to testing): dose dependent decrease in anxiety; light-dark entries (FIG. 6C) ([4]; 1 or 2 mg/kg): more light-dark entries; time in the dark (FIG. 6B) ([4]; 1 or 2 mg/kg, p<0.01): less time in the dark; time in the light (FIG. 6A) ([4]; 1 or 2 mg/kg, p<0.01): more time in the light; activation of vasopressin receptor signaling in brain scans (FIG. 4 vs FIG. 3) ([5]; amygdala, cortex, hippocampus, thalamus, mate+intruder): lower activation of vasopressin receptor signaling than the untreated controls; stress/arousal response in amygdala, cortex, hippocampus and thalamus ([5]; pretreatment 5 mg/kg 90 minutes before test session, mate + intruder, listed as AVN251): blocked the stress/arousal response
8 | CC(NC(=O)C(CC(=O)N1CCC([N+]2([O-])CCCCC2)CC1)N1C(=O)C(N2C(=O)OCC2c2ccccc2)C1C=Cc1ccccc1)c1ccccc1 (stereo not shown) [Example 672] | – | – | 8.96 | –
9 | O=C(NCc1ccccc1F)C(CC(=O)N1CCC(N2CCCCC2)CC1)N1C(=O)C(N2C(=O)OCC2c2ccccc2)C1C=Cc1ccccc1 (stereo not shown) [Example 677] | – | – | 8.52 | –
10 | CNCCC(Oc1ccc(C(F)(F)F)cc1)c1ccccc1 (stereo not shown) [fluoxetine, reference compound] | – | – | – | sexual motivation / mesocorticolimbic dopamine reward system activation ([5]; presentation of novel receptive female): markedly diminishes activation of this circuit; stress circuit activation (BOLD), mate plus intruder ([5]; resident male rats, 5 mg/kg oral gavage): decreased activation of both the stress circuits and the mesocorticolimbic dopamine reward system
11 | (2S)-[(4-cyclohexylpiperazinyl)carbonylethyl]-2-[3(S)-(4(S)-phenyloxazolidin-2-on-3-yl)-4(R)-(2-phenyleth-1-yl)azetidin-2-on-1-yl]acetic acid N—[(R)-1,2,3,4-tetrahydronaphth-1-yl]amide [Example 236A] | – | 8.05 | 8.26 | –
